Data reported in US20250325684A1, “POTENT ANTI-CANCER CYCLOTIDES” (University of Southern California, priority 2022, published 2025).
“Also recorded” adds a separate entry of the source. Numbered stars: 1 amine (or outer) side, 2 acyl side, 3 side chain; on linkers, the order of the positions; unused ones are H or OH. Bridge positions count the residues as written; N and C are the ends. Square brackets hold non-standard residues; d marks the D form. Peptide text beside a SMILES is read from it. I, II: the chains in the order shown. X1 = O=C(CCc1cn(CCOCCOCCOCCC(=O)[*:2])nn1)[*:1]; isoGln = NC(=O)[C@H](CCC(=O)[*:2])N[*:1]

Experiments:
NCl-H23 = experiment: MTT cell viability, NCl-H23 cells; assay type: cell-based, human; details: NCl-H23 lung adenocarcinoma, p53 Mutant
Procedure: (§1) Cell viability assay in several human cancer cell lines (See Tables 1 to 10). Cell lines were cultured in RPMI 1640 (or recommended medium when indicated) medium supplemented with 10% fetal calf serum, penicillin (50 IU/mL) and streptomycin ([…]) at 37° C. in 5% CO2. Cell viability studies was carried using the MTT (3-(4,5-dimethylthiazol-2-yl)-2,5-diphenyltetrazolium bromide) assay as previously described (31). Briefly, ≈2×10^3 CRC cells were be seeded in 96-well microtiter plates in 100 μL RPMI 1640 in the presence of 10% calf serum. […] After 1 h, 210 μL/well of full complemented media was added, the cells were grown for 48 h and then treated with 20 μL of a solution of MTT (5 mg/mL) for 2 h. The medium was discarded and DMSO ([…]) was added to each well and incubated with gentle shaking for 20 min at room temperature. The absorbance at 595 nm of the solution is analyzed using a Tecan Genios Multifunctional Microplate Reader (Tecan System Inc) and the background at 670 nm subtracted. RNA-Seq analysis was performed using state-of-the-art bioinformatics tools. Briefly, raw RNA-Seq reads were mapped to human genome (hg38) using STAR aligner (v2.7.3a). Gencode Release 36 reference was used for annotation. Transcript and gene expression levels were quantified using the IsoEM (37) with default parameters. Counts per million (CPM) method is used for normalization. Differential expression was done using DESeq2 with default parameters. Genes involved in different biological pathways (human) were searched from Geneontology (http://geneontology.org/). Bioinformatics results can be validated by using Partek Flow (v10.0.21.0912), a bioinformatics pipeline developed by Zymo Research (https://www.zymoresearch.com/).
(§2) Cell viability was evaluated using the MTT assay as described above.

NCl-H1299 = experiment: MTT cell viability, NCl-H1299 cells; assay type: cell-based, human; details: NCl-H1299 lung large cell carcinoma, p53 Null
Procedure: as §1, §2

Jurkat = experiment: MTT cell viability, Jurkat cells; assay type: cell-based, human; details: Jurkat childhood T acute lymphoblastic leukemia, p53 Mutant
Procedure: as §1, §2

NCl-H526 = experiment: MTT cell viability, NCl-H526 cells; assay type: cell-based, human; details: NCl-H526 lung small cell carcinoma, p53 Null
Procedure: as §1, §2

DLD-1 = experiment: MTT cell viability, DLD-1 cells; assay type: cell-based, human; details: DLD-1 colon adenocarcinoma, p53 Mutant
Procedure: as §1, with “Counts per million (CPM) method is used for normalization. Differential expression was done using DESeq2 with default parameters. Genes involved in different biological pathways (human) were searched from Geneontology (http://geneontology.org/). Bioinformatics results can be validated by using Partek Flow (v10.0.21.0912), a bioinformatics pipeline developed by Zymo Research (https://www.zymoresearch.com/).” left out
as §2

U937 = experiment: MTT cell viability, U937 cells; assay type: cell-based, human; details: U937 adult acute monocytic leukemia, p53 Mutant
Procedure: as §1, §2

NCl-A549 = experiment: MTT cell viability, NCl-A549 cells; assay type: cell-based, human; details: NCl-A549 lung adenocarcinoma, p53 WT
Procedure: as §1, §2

NCl-H1944 = experiment: MTT cell viability, NCl-H1944 cells; assay type: cell-based, human; details: NCl-H1944 lung adenocarcinoma, p53 WT
Procedure: as §1, with “Counts per million (CPM) method is used for normalization. Differential expression was done using DESeq2 with default parameters. Genes involved in different biological pathways (human) were searched from Geneontology (http://geneontology.org/). Bioinformatics results can be validated by using Partek Flow (v10.0.21.0912), a bioinformatics pipeline developed by Zymo Research (https://www.zymoresearch.com/).” left out
as §2

HCT116^+/+ = experiment: MTT cell viability, HCT116 p53 wild-type cells; assay type: cell-based, human; details: HCT116^+/+ colon carcinoma, p53 WT; MTT; read-out: EC50
Procedure: as §1, §2

[1] = target: T1, E3 ligase activity of Hdm2 (Homo sapiens, UniProt Q00987); experiment: E3 ligase activity of Hdm2 on p53, commercial kit; assay type: biochemical; details: in vitro, Hdm2 around 1 μM (FIG. 4B)
T1 construct: purchased
T1 sequence (Q00987 whole entry): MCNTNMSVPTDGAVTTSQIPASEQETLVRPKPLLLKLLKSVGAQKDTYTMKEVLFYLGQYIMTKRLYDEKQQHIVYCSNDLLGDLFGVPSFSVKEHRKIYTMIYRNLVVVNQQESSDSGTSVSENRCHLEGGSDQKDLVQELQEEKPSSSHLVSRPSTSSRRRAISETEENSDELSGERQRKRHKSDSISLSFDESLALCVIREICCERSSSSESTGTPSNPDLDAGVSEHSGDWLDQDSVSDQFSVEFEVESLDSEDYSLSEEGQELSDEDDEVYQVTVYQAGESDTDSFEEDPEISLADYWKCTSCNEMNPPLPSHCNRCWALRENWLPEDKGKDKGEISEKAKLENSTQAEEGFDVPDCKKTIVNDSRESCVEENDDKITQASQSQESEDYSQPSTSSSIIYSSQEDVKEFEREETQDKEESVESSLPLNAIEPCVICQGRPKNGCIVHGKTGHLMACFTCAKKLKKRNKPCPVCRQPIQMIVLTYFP
Procedure: FIGS. 4A-4B: Structure and E3 ligase inhibitory activity of cyclotide MCo-52-2. (FIG. 4A) Structures of the heterodimer formed by the RINGs domain of Hdm2 and HdmX and the complex of cyclotide MCo-52-2 with the RING domain of HdmX, the interacting residues in loops 1 and 5 are shown in light grey (on the left). (FIG. 4B) Inhibitory E3 ligase activity of cyclotide of Hdm2 on p53. The concentration of Hdm2 in the assay was around 1 μM as provided in the commercial kit.
Cyclotide MCo-52-2-cTAT efficiently antagonizes the RING-mediated dimerization of Hdm2/HdmX inhibiting its E3 ligase activity. Applicant developed a cell-based screening of genetically-encoded libraries of cyclotides for Hdm2/HdmX antagonists that has allowed the selection of a bioactive cyclotide, MCo-52-2-cTAT. […] This cyclotide can be efficiently produced by chemical synthesis using solid-phase peptide synthesis (SPPS) or heterologous expression systems (28). Heterologous expression of cyclotides allows introduction of NMR-active isotopes, such as ^13C and ^15N to study the structure of this cyclotide and how interacts with the RING-domains of Hdm2 and HdmX. Using this approach, Applicant solved the structure of cyclotide MCo-52-2 complexed to the RING domain of HdmX in solution (FIG. 4A).

[2] = system: p53, FOXO3a, RUNX3, ATF3, DYRK2 and HIPK2 in HCT116 cell lines; experiment: Stabilization of Hdm2/HdmX E3 ligase substrates in HCT116 cell lines; assay type: cell-based, human; details: HCT116 cell lines with p53-wt and -null phenotype; listed as MCo-52-2-cTAT
Procedure: Stabilization of p53 could be observed just 8 h after treating the cells with the bioactive cyclotide (FIG. 5B), likely indicating the cyclotide crosses the cellular membrane into the cytosol through an endocytic mechanism as previously described for this type of microproteins (30, 31). […] These transcription factors (ATF3, FOXO3a and RUNX3) and kinases (DYRK2 and HIPK2) have been described to be regulated by the E3 ligase activity of Hdm2/HdmX (6). […] In both cases the peptide was able to inhibit tumor growth by 60% (HCT116-nude mice) and 80% (CT26-Balb/c mice) (FIG. 7).

Compound	EC50 (NCl-H23)	EC50 (NCl-H1299)	EC50 (Jurkat)	EC50 (NCl-H526)	EC50 (DLD-1)	EC50 (U937)	EC50 (NCl-A549)	EC50 (NCl-H1944)	EC50 (HCT116^+/+)	Inhibition of the E3 ligase activity of Hdm2 [1]	Stabilization of transcription factors and kinases [2]
COc1ccc(C2=N[C@@H](c3ccc(Cl)cc3)[C@@H](c3ccc(Cl)cc3)N2C(=O)N2CCNC(=O)C2)c(OC(C)C)c1 [Nutlin 3A]	> 50 µM	> 100 µM	45.2 ± 2.4 µM	> 100 µM	> 100 µM	> 50 µM	6.6 ± 0.7 µM	22.1 µM	–	–	–
N=C(N)NCCC[C@@H]1NC(=O)[C@@H](CCCNC(=N)N)NC(=O)[C@H](CCCCN)NC(=O)[C@@H](N)CCCCNC(=O)CC[C@@H](C(=O)O)NC(=O)[C@@H](CCCNC(=N)N)NC(=O)[C@H](CCCNC(=N)N)NC(=O)[C@@H](CCCCN)NC(=O)[C@H](CCCCN)NC(=O)[C@@H](CCCNC(=N)N)NC(=O)CNC(=O)[C@@H](CCCNC(=N)N)NC1=O [cTAT] (H-KK[dR]R[dR]G[dR]K[dK]R[dR]E-OH; lactam 1-12; N-terminus and C-terminus assumed)	> 100 µM	> 100 µM	> 100 µM	> 100 µM	> 100 µM	> 100 µM	> 100 µM	> 100 µM	> 100 µM	–	–
I: cyclo(ACICRHDSYCGSGSDGGVCPNLYLLCRRDKDCPG) / II: KK[dR]R[dR]G[dR]K[dK]R[dR][isoGln] (disulfide I:2-I:19, I:4-I:26, I:10-I:32; linker I:30-II:N via X1; lactam II:1-II:C) [Cyclotide 52-2-cTAT]	–	–	–	–	–	–	–	–	10.9 ± 1.3 µM	specifically inhibit the E3 ligase activity of Hdm2 in vitro in a dose-dependent fashion	stabilize ATF3, FOXO3a, RUNX3, DYRK2 and HIPK2; also recorded: stabilizes transcription factors p53, FOXO3a, RUNX3, ATF3, and kinases DYRK2 and HIPK2
